13 molecules from PubChem BioAssay AID248 (DTP/NCI, 2004) can be followed below.

This assay has as its system L1210 leukemia ip in BDF1 mice, survival T/C. Description: NCI In Vivo Anticancer Drug Screen. Data for tumor model L1210 Leukemia (intraperitoneal) in B6D2F1 (BDF1) mice. The settings on record: endpoint: mean survival time, higher = longer survival. An outline of the steps: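 Ratio derived from survival: compound-dosed mice over vehicle-dosed mice, all bearing a transplantable tumor.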

The mark [1] stands for this setting: dose: 100.0 mg/kg/injection, schedule: Q01DX001 (ip), vehicle: saline with Tween-80.
Where [2] appears, read: dose: 200.0 mg/kg/injection, schedule: Q01DX001 (ip), vehicle: saline with Tween-80.
Setting [3] is: dose: 400.0 mg/kg/injection, schedule: Q01DX001 (ip), vehicle: saline with Tween-80.
[4] abbreviates: dose: 100.0 mg/kg/injection, schedule: Q04DX003 (ip), vehicle: Klucel (hydroxypropylcellulose) (HPC).
[5] abbreviates: dose: 200.0 mg/kg/injection, schedule: Q04DX003 (ip), vehicle: Klucel (hydroxypropylcellulose) (HPC).
[6] abbreviates: dose: 400.0 mg/kg/injection, schedule: Q04DX003 (ip), vehicle: Klucel (hydroxypropylcellulose) (HPC).
Setting [7] is: dose: 100.0 mg/kg/injection, schedule: Q04DX003 (ip), vehicle: saline.

Inconclusive results and toxic doses are left out.

As for `C[C@H](CCC(=O)O)[C@H]1CC[C@H]2[C@@H]3[C@H](O)C[C@@H]4C[C@H](O)CC[C@]4(C)[C@H]3C[C@H](O)[C@]12C` (tested in a mixture with another compound), the T/C reads like this: (dose: 37.5 mg/kg/injection, schedule: Q01DX009 (ip), vehicle: saline) 107 % of control; (dose: 50.0 mg/kg/injection, schedule: Q04DX003 (ip), vehicle: other) 105 % of control; (dose: 75.0 mg/kg/injection, schedule: Q01DX009 (ip), vehicle: saline) 111 % of control; (dose: 77.0 mg/kg/injection, schedule: Q01DX Z (ip), vehicle: methylcellulose (MC)) 105 % of control; (dose: 80.0 mg/kg/injection, schedule: Q01DX009 (ip), vehicle: other) 97 % of control; (dose: 80.0 mg/kg/injection, schedule: Q01DX009 (ip), vehicle: saline) 115 % of control. In addition, the T/C (dose: 80.0 mg/kg/injection, schedule: Q01DX Z (ip), vehicle: saline) is 111 % of control; the T/C (dose: 100.0 mg/kg/injection, schedule: Q01DX001 (ip), vehicle: alcohol) is 96 % of control; the T/C (dose: 100.0 mg/kg/injection, schedule: Q04DX003 (ip), vehicle: other) was 97 % of control; the T/C (dose: 116.0 mg/kg/injection, schedule: Q01DX Z (ip), vehicle: methylcellulose (MC)) was 115 % of control; the T/C (dose: 120.0 mg/kg/injection, schedule: Q01DX009 (ip), vehicle: other) is 118 % of control; the T/C (dose: 120.0 mg/kg/injection, schedule: Q01DX Z (ip), vehicle: saline) was 152 % of control. Further, the T/C is 88 % of control (dose: 150.0 mg/kg/injection, schedule: Q01DX009 (ip), vehicle: saline); 115 % of control (dose: 180.0 mg/kg/injection, schedule: Q01DX009 (ip), vehicle: other); 115 % of control (dose: 180.0 mg/kg/injection, schedule: Q01DX Z (ip), vehicle: methylcellulose (MC)); 179 % of control (dose: 180.0 mg/kg/injection, schedule: Q01DX Z (ip), vehicle: saline); 115 % of control (dose: 198.0 mg/kg/injection, schedule: Q04DX003 (ip), vehicle: other); 92 % of control (dose: 200.0 mg/kg/injection, schedule: Q01DX001 (ip), vehicle: alcohol). The T/C was 105 % of control (dose: 200.0 mg/kg/injection, schedule: Q04DX003 (ip), vehicle: other); 96 % of control (dose: 263.0 mg/kg/injection, schedule: Q01DX Z (ip), vehicle: methylcellulose (MC)); 114 % of control (dose: 270.0 mg/kg/injection, schedule: Q01DX Z (ip), vehicle: saline).
With `c1ccc(-c2c(-c3ccccc3)c(-c3ccccc3)c(-c3ccc(Oc4ccc(-c5c(-c6ccccc6)c(-c6ccccc6)c(-c6ccccc6)c(-c6ccccc6)c5-c5ccccc5)cc4)cc3)c(-c3ccccc3)c2-c2ccccc2)cc1`, the T/C was 92 % of control under setting [1], 92 % of control under setting [2] and 100 % of control under setting [3].
Regarding `CCCOC(=O)NCCSC(=O)OCCC`, the T/C under setting [1] is 95 % of control, the T/C under setting [2] was 95 % of control and the T/C under setting [3] was 108 % of control.
Turning to `CC1OC(CO)C(O)C(O)C1NC(=O)c1ccccc1` (configuration not stated), the T/C (dose: 50.0 mg/kg/injection, schedule: Q01DX009 (ip), vehicle: saline with Tween-80) is 98 % of control; the T/C (dose: 100.0 mg/kg/injection, schedule: Q01DX009 (ip), vehicle: saline with Tween-80) was 103 % of control; the T/C (dose: 200.0 mg/kg/injection, schedule: Q01DX009 (ip), vehicle: saline with Tween-80) is 103 % of control.
For `Cc1cnc(N)cn1` (tested in a mixture with another compound), the T/C is, setting by setting: under setting [4], 102 % of control; under setting [5], 109 % of control; under setting [6], 88 % of control.
`CSc1nc(C(Cl)Cl)cnc1Cl`: the T/C is 102 % of control (dose: 100.0 mg/kg/injection, schedule: Q04DX002 (ip), vehicle: Klucel (hydroxypropylcellulose) (HPC)); 91 % of control (dose: 200.0 mg/kg/injection, schedule: Q04DX002 (ip), vehicle: Klucel (hydroxypropylcellulose) (HPC)); 105 % of control (dose: 400.0 mg/kg/injection, schedule: Q04DX002 (ip), vehicle: Klucel (hydroxypropylcellulose) (HPC)).
Turning to `CCCCNc1c(NCCCC)c(=O)c1=O`, the T/C runs as follows: under setting [4], 90 % of control; under setting [5], 90 % of control; under setting [6], 91 % of control.
Turning to `COc1cccc(CC(C)N)c1OC` (configuration not stated), the T/C runs as follows: (dose: 25.0 mg/kg/injection, schedule: Q04DX003 (ip), vehicle: saline) 103 % of control; (dose: 50.0 mg/kg/injection, schedule: Q04DX003 (ip), vehicle: saline) 91 % of control; under setting [7], 101 % of control.
Take `Cc1cc(CS)c(CS)cc1C`: the T/C runs as follows: (dose: 100.0 mg/kg/injection, schedule: Q01DX009 (ip), vehicle: Klucel (hydroxypropylcellulose) (HPC)) 100 % of control; under setting [4], 96 % of control; (dose: 200.0 mg/kg/injection, schedule: Q01DX009 (ip), vehicle: Klucel (hydroxypropylcellulose) (HPC)) 103 % of control; under setting [5], 93 % of control; (dose: 400.0 mg/kg/injection, schedule: Q01DX009 (ip), vehicle: Klucel (hydroxypropylcellulose) (HPC)) 102 % of control; under setting [6], 94 % of control.
As to `C[C@H]1CCC/C=C/[C@@H]2C[C@H](O)C[C@H]2[C@H](O)/C=C/C(=O)O1`, the T/C runs as follows: (dose: 100.0 mg/kg/injection, schedule: Q01DX001 (ip), vehicle: carboxymethylcellulose (CMC)) 105 % of control; (dose: 100.0 mg/kg/injection, schedule: Q01DX001 (ip), vehicle: other) 92 % of control; (dose: 100.0 mg/kg/injection, schedule: Q01DX015 (ip), vehicle: water) 96 % of control; (dose: 200.0 mg/kg/injection, schedule: Q01DX001 (ip), vehicle: carboxymethylcellulose (CMC)) 103 % of control; (dose: 200.0 mg/kg/injection, schedule: Q01DX001 (ip), vehicle: other) 95 % of control; (dose: 200.0 mg/kg/injection, schedule: Q01DX015 (ip), vehicle: water) 103 % of control. Further, under “dose: 400.0 mg/kg/injection, schedule: Q01DX001 (ip), vehicle: other”, the T/C was 93 % of control.
Regarding `CC(C)=CCC(CCN(C)C)(C(N)=O)c1cccc2ccccc12` (configuration not stated), the T/C was 102 % of control (dose: 5.0 mg/kg/injection, schedule: Q01DX009 (ip), vehicle: Klucel (hydroxypropylcellulose) (HPC)); 94 % of control (dose: 5.0 mg/kg/injection, schedule: Q04DX003 (ip), vehicle: Klucel (hydroxypropylcellulose) (HPC)); 93 % of control (dose: 10.0 mg/kg/injection, schedule: Q01DX009 (ip), vehicle: Klucel (hydroxypropylcellulose) (HPC)); 91 % of control (dose: 10.0 mg/kg/injection, schedule: Q04DX003 (ip), vehicle: Klucel (hydroxypropylcellulose) (HPC)); 91 % of control (dose: 20.0 mg/kg/injection, schedule: Q01DX009 (ip), vehicle: Klucel (hydroxypropylcellulose) (HPC)); 96 % of control (dose: 20.0 mg/kg/injection, schedule: Q04DX003 (ip), vehicle: Klucel (hydroxypropylcellulose) (HPC)).
On to `CN(C)NC(=O)NCCCl`, for which the T/C was 106 % of control under setting [7]; 105 % of control (dose: 200.0 mg/kg/injection, schedule: Q04DX003 (ip), vehicle: saline); 108 % of control (dose: 400.0 mg/kg/injection, schedule: Q04DX003 (ip), vehicle: saline).
Regarding `N#CC(C#N)=C1C(=O)c2ccccc2-c2ccccc21`, the T/C (dose: 100.0 mg/kg/injection, schedule: Q01DX001 (ip), vehicle: saline) is 107 % of control; the T/C (dose: 200.0 mg/kg/injection, schedule: Q01DX001 (ip), vehicle: saline) is 109 % of control; the T/C (dose: 400.0 mg/kg/injection, schedule: Q01DX001 (ip), vehicle: saline) was 105 % of control.
